Reference: publication PMC11129186, “New Improved cGMP Analogues to Target Rod Photoreceptor Degeneration” (Journal of Medicinal Chemistry, 2024)
pEC50, pKi: −log10 of the molar value. Where two headings read alike, the source gives them in different places.

Experiments:
[1] = target: PDE6 purified enzyme; parameters: method as in PMID 16123402; conditions: cited from earlier work
[2] = system: 661W-A11 cells stressed with zaprinast; assay: Cell viability MTT assay in cells stressed with zaprinast; format: cell-based, mouse; conditions: 50 μM compound, 200 μM zaprinast for 48 h
Procedure: The neuroprotective activity of the newly developed compounds was then evaluated in 661W-A11 cells stressed with zaprinast. Viability was assessed by an MTT assay.
(§1) 661W-A11 cells were seeded in 96-well plates at a density of 6000 cells/well or in 24-well plates at a density of 20,000 cells/well. Twenty-four h after seeding, cells were pretreated with 50 μM of either CN03-Na^+ or CN03 or SP-CN03 or oxo-CN03 or dithio-CN03 for 2 h, followed by 200 μM zaprinast treatment for 48 h in the presence of the compounds. Control groups were treated with an equal volume of vehicle, H2O or DMSO.
661W-A11 cells were cultured on 96-well plates at a density of 6000 cells/well. After compound treatments, the culture medium was replaced with medium containing 1 mg/mL of MTT (Sigma) and cells were cultured for 90 min at 37 °C. Viability was assessed by MTT assay (see above for detailed procedure). OD was measured at 570 nm.

[3] = system: primary photoreceptor cells derived from rd1 mutant mice; assay: Cell death TUNEL assay in primary photoreceptors; format: cell-based, mouse; conditions: for neuroprotective effect, cell death (TUNEL): 50 μM added at day 10 of differentiation, read at day 11
Source text: To address this possible limitation of the RP model, we tested the CN03 analogues in another RP in vitro cellular model, previously validated for the analysis of cGMP analogues.[10] This model is based on the primary cell culture and differentiation of cells derived from rd1 mutant eyes. The rd1 mouse is one of the best characterized murine models of RP. It carries a mutation in the Phosphodiesterase 6b (Pde6b) gene. Lack of PDE6 function causes high intracellular levels of cGMP in rod photoreceptor cells.[26],[9] […] CN03-Na^+, SP-CN03, and dithio-CN03 were administered to the culture of rd1 mutant cells at a concentration of 50 μM at day 10 of differentiation. The concentration of the compounds and the time of treatment were chosen based on the previously published study in which cGMP inhibitory analogues were tested in this type of primary photoreceptors.[10] Cell death was then analyzed by the TUNEL assay at day 11 of in vitro differentiation.
rd1 mutant mice were purchased from Charles River Italy. The protocol was approved by the Ethical Committee of the University of Modena and Reggio Emilia and by the Italian Ministero della Salute (150/2021-PR). Primary neurospheres were derived from the eyes of rd1 mutant mice, as previously reported.[32] Retinal stem cells in neurospheres were differentiated into photoreceptors, as previously reported.[10]rd1 mutant photoreceptor cells underwent spontaneous cell death after differentiation for 11 days. At day 10, 50 μM of either CN03-Na^+ or SP-CN03 or dithio-CN03 were added to the cells in culture and cell death was assessed 1 day later (day 11 of differentiation) by TUNEL assay (see above for detailed procedure).

[4] = system: 661W-A11 cells stressed with zaprinast; assay: Dose-response curves of cell viability (MTT) under zaprinast stress; format: cell-based, mouse; conditions: for pEC50: read-out: EC50 of cell viability
Procedure: For this analysis, we used the 661W-A11 cells stressed with zaprinast and exposed them to scaling concentrations of either dithio-CN03 or SP-CN03 or CN03-Na^+. The effects were evaluated by the cell viability MTT assay (Figure 5). […] Nevertheless, CN03-Na^+ and SP-CN03 reached up to 70–80% cell viability, while dithio-CN03 could protect rod photoreceptors to almost 100% cell viability at the highest doses (Figure 5). Although dithio-CN03 was considered more hydrophobic, and its entrance in the cells could have been facilitated by this feature, the calculated EC50 was nonetheless similar to more hydrophilic analogues.
661W-A11 cells were seeded in 96-well plates at a density of 6000 cells/well, and the following day they were pretreated with scaling concentrations of either CN03-Na^+ or SP-CN03 or dithio-CN03 for 2 h and then stressed with zaprinast 200 μM in the presence of the compounds for 48 h. Cell viability was assessed by MTT assay (see above for detailed procedure). OD was measured at 570 nm. Data were plotted and EC50 calculated using GraphPad Prism version 7.

[5] = system: 661W-A11 cells stressed with zaprinast; assay: Cell death TUNEL assay in cells stressed with zaprinast; format: cell-based, mouse; conditions: 50 μM compound, 200 μM zaprinast for 48 h
Procedure: Viability assay cannot discriminate between protection from cell death and possible increased proliferation induced by the treatment. To discriminate between these two responses, we analyzed cell death by the TUNEL assay that detects dying cells based on fragmented chromatin. The TUNEL assay confirmed data obtained with the MTT assay (Figure 3B,C).
as §1
661W-A11 cells were seeded in 24-well plates at a density of 20,000 cells/well. After treatments, cells were fixed with 2% paraformaldehyde for 10 min and permeabilized with 1 M Na^+ citrate and 0.1% Triton X-100 on ice for 2 min. Cells were incubated with TUNEL solution “In situ Cell Death Detection Kit” TMR Red (Roche) for 30 min at 37 °C, and cell nuclei were stained with 0.1 μg/mL 4′,6-diamidin-2-fenilindolo (DAPI). […] The quantification of percentage of dead cells was based on the ratio of TUNEL-labeled cells on the total number of cells (DAPI-labeled).

[6] = system: photoreceptor cells of murine models of RP; parameters: method as in PMID 29531030; conditions: in vivo delivered; cited from earlier work
[7] = system: PKG; parameters: method as in PMID 29531030; conditions: in vitro and in vivo; cited from earlier work
[8] = system: CNGC; parameters: method as in PMID 29531030; conditions: in vitro and in vivo; cited from earlier work

CCCOc1ccccc1-c1nc2nn[nH]c2c(=O)[nH]1 [zaprinast]
pKi [1]: 7.52

O=c1c2nc(Br)n([C@@H]3O[C@@H]4CO[P@](O)(=S)O[C@H]4[C@H]3O)c2nc2[nH]c(-c3ccccc3)cn12 [SP-CN03, Triethylammonium SP-8-Bromo-β-phenyl-1,N^2-ethenoguanosine-3′,5′-cyclicmonophosphorothioate]
protective effect on cell viability (MTT) [2]: increasing cell viability
neuroprotective effect, cell death (TUNEL) [3]: neuroprotective effect similar to CN03-Na^+
toxicity to photoreceptors ([3]; 50 μM, 24 h): not toxic to photoreceptors
cell viability reached at the highest doses ([4]; 200 μM zaprinast for 48 h, MTT): 70–80%
pEC50 ([4]; Mus musculus, 661W-A11, 48 h): 4.80

O=c1c2nc(Br)n([C@@H]3O[C@@H]4COP(=O)(O)O[C@H]4[C@H]3O)c2nc2[nH]c(-c3ccccc3)cn12 [oxo-CN03, Triethylammonium 8-Bromo-β-phenyl-1,N^2-ethenoguanosine-3′,5′-cyclicmonophosphate]
protective effect on cell viability (MTT) [2]: All CN03 compounds, except oxo-CN03, were able to improve cell viability
protection from cell death (TUNEL) [5]: failure of oxo-CN03 to protect

O=c1c2nc(Br)n([C@@H]3O[C@@H]4CO[P@@](O)(=S)O[C@H]4[C@H]3O)c2nc2[nH]c(-c3ccccc3)cn12 [CN03, RP-8-Br-PET-cGMPS]
preservation of photoreceptor cells [6]: could preserve photoreceptor cells of murine models of RP
interference with PKG activity [7]: interfere with PKG activity
block of Ca2+ influx through the CNGC [8]: block Ca^2+ influx through the CNGC

O=c1c2nc(Br)n([C@@H]3O[C@@H]4CO[P@@]([O-])(=S)O[C@H]4[C@H]3O)c2nc2[nH]c(-c3ccccc3)cn12.[Na+] [CN03-Na^+]
neuroprotective effect, cell death (TUNEL) [3]: decreased the percentage of cell death
cell viability reached at the highest doses [4]: 70–80%
pEC50 ([4]; 200 μM zaprinast for 48 h, doses 1 μM to 1 mM, MTT): 4.77
